The source of these data is PubChem BioAssay AID330 (DTP/NCI, 2004).

For this experiment, the system named is P388 leukemia ip, CD2F1 mice, survival T/C. The experiment is described as follows: NCI In Vivo Anticancer Drug Screen. Data for tumor model P388 Leukemia (intraperitoneal) in CD2F1 (CDF1) mice. As to conditions: endpoint: median survival time, higher = longer survival. The gist of the method:
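Mice carrying the transplanted tumor received test compound or vehicle. Survival was recorded in each group, and the value is the treated-group measurement divided by that of the vehicle-treated control group.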

The mark [1] stands for this setting: dose: 50.0 mg/kg/injection, schedule: Q01DX005 (ip), vehicle: Klucel (hydroxypropylcellulose) (HPC).
The mark [2] stands for this setting: dose: 100.0 mg/kg/injection, schedule: Q01DX005 (ip), vehicle: Klucel (hydroxypropylcellulose) (HPC).
Setting [3] is: dose: 200.0 mg/kg/injection, schedule: Q01DX005 (ip), vehicle: Klucel (hydroxypropylcellulose) (HPC).

Values joined by “and” are separate entries in the source; they are usually repeats but may differ in a detail not shown here. Identical values can stand only once. Inconclusive results and toxic doses are left out.

As for `COC(=S)c1ccc(C(=S)OC)cc1`, the T/C is, setting by setting: (dose: 50.0 mg/kg/injection, schedule: Q01DX009 (ip), vehicle: saline with Tween-80) 99 % of control; (dose: 100.0 mg/kg/injection, schedule: Q01DX009 (ip), vehicle: saline with Tween-80) 105 % of control; (dose: 200.0 mg/kg/injection, schedule: Q01DX009 (ip), vehicle: saline with Tween-80) 103 % of control.

In the case of `CC(C)n1ncc2c(N)ncnc21`, the T/C was 100 % of control (dose: 3.75 mg/kg/injection, schedule: Q01DX009 (ip), vehicle: saline); 95 % of control (dose: 7.5 mg/kg/injection, schedule: Q01DX009 (ip), vehicle: saline); 104 % of control and 95 % of control (dose: 15.0 mg/kg/injection, schedule: Q01DX009 (ip), vehicle: saline).

As for `C=C1C(O)C2(O)OCC34C(CC5C(C)=CC(=O)C(O)C5(C)C23)OC(=O)C(O)C14O` (stereo unspecified), the T/C (dose: 6.25 mg/kg/injection, schedule: Q01DX009 (ip), vehicle: saline) is 93 % of control.

As to `CCOc1cc2c(cc1C(C)c1cc(OC)c(OC)c(OC)c1)OCO2` (stereo unspecified), the T/C reads like this: under setting [1], 96 % of control; under setting [2], 102 % of control; under setting [3], 96 % of control.

For the molecule `Cc1ccc(C2=CSC3=NCCN23)cc1Cl`, the T/C was 99 % of control (dose: 12.5 mg/kg/injection, schedule: Q01DX005 (ip), vehicle: Klucel (hydroxypropylcellulose) (HPC)); 101 % of control (dose: 25.0 mg/kg/injection, schedule: Q01DX005 (ip), vehicle: Klucel (hydroxypropylcellulose) (HPC)); 107 % of control under setting [1].

Regarding `Clc1cccc(O[Si]23OCCN(CCO2)CCO3)c1`, the T/C under setting [1] is 109 % of control, the T/C under setting [2] is 106 % of control and the T/C under setting [3] is 102 % of control.

Take `C[n+]1c(-c2cccc(OCCCCCCCCCCCCCCCCOc3cccc(-c4c5cc(N)ccc5c5ccc(N)cc5[n+]4C)c3)c2)c2cc(N)ccc2c2ccc(N)cc21`: the T/C (dose: 0.39 mg/kg/injection, schedule: Q01DX009 (ip), vehicle: water) is 117 % of control; the T/C (dose: 0.78 mg/kg/injection, schedule: Q01DX009 (ip), vehicle: water) is 117 % of control; the T/C (dose: 1.56 mg/kg/injection, schedule: Q01DX009 (ip), vehicle: water) was 98 % of control and 119 % of control; the T/C (dose: 3.12 mg/kg/injection, schedule: Q01DX009 (ip), vehicle: water) is 113 % of control; the T/C (dose: 6.25 mg/kg/injection, schedule: Q01DX009 (ip), vehicle: water) was 179 % of control.

Regarding `C=C(C)C(=O)NC(Cc1cnc[nH]1)C(=O)O` (stereo unspecified), the T/C runs as follows: (dose: 50.0 mg/kg/injection, schedule: Q01DX009 (ip), vehicle: saline) 106 % of control; (dose: 100.0 mg/kg/injection, schedule: Q01DX009 (ip), vehicle: saline) 107 % of control; (dose: 200.0 mg/kg/injection, schedule: Q01DX009 (ip), vehicle: saline) 107 % of control.

Regarding `C=CC1=C(C)C2=NC1=CC1=NC(=CC3=C(C)C4=C(O)C(C(=O)OC)C(=C5NC(=C2)C(C)C5CCC(=O)OC/C=C(\C)CCCC(C)CCCC(C)CCCC(C)C)C4=N3)C(CC)=C1C` (stereo unspecified), the T/C was 90 % of control (dose: 50.0 mg/kg/injection, schedule: Q01DX005 (ip), vehicle: saline with Tween-80); 92 % of control (dose: 100.0 mg/kg/injection, schedule: Q01DX005 (ip), vehicle: saline with Tween-80); 92 % of control (dose: 200.0 mg/kg/injection, schedule: Q01DX005 (ip), vehicle: saline with Tween-80).

Consider `Nc1ccc(S(=O)(=O)Nc2cccc3[nH]c(=O)oc23)cc1`, for which the T/C runs as follows: (dose: 50.0 mg/kg/injection, schedule: Q04DX002 (ip), vehicle: Klucel (hydroxypropylcellulose) (HPC)) 101 % of control; (dose: 100.0 mg/kg/injection, schedule: Q04DX002 (ip), vehicle: Klucel (hydroxypropylcellulose) (HPC)) 99 % of control; (dose: 200.0 mg/kg/injection, schedule: Q04DX002 (ip), vehicle: Klucel (hydroxypropylcellulose) (HPC)) 100 % of control.

Regarding `Cc1nc(N)nc2c1CCC(O)S2` (stereo unspecified), the T/C (dose: 50.0 mg/kg/injection, schedule: Q01DX005 (ip), vehicle: saline) was 98 % of control; the T/C (dose: 100.0 mg/kg/injection, schedule: Q01DX005 (ip), vehicle: saline) was 102 % of control; the T/C (dose: 200.0 mg/kg/injection, schedule: Q01DX005 (ip), vehicle: saline) was 96 % of control.

With `Cc1c(-c2ccccc2)ccnc1/C=N/NC(=S)Nc1ccc(N(C)C)cc1`, the T/C was 119 % of control (dose: 3.12 mg/kg/injection, schedule: Q01DX009 (ip), vehicle: saline with Tween-80) and 153 % of control (dose: 6.25 mg/kg/injection, schedule: Q01DX009 (ip), vehicle: saline with Tween-80).

As to `CC(C)C(=O)CC(c1ccccc1)P(=O)(c1ccccc1)c1ccccc1` (stereo unspecified), the T/C reads like this: under setting [1], 102 % of control; under setting [2], 103 % of control; under setting [3], 103 % of control.

In the case of `CC1=C(C)C(=O)OC(C(C)C2CCC3C4CC5OC56C(O)CCC(=O)C6(C)C4CCC23C)C1` (stereo unspecified), the T/C reads like this: (dose: 11.3 mg/kg/injection, schedule: Q01DX009 (ip), vehicle: Klucel (hydroxypropylcellulose) (HPC)) 101 % of control; (dose: 22.6 mg/kg/injection, schedule: Q01DX009 (ip), vehicle: Klucel (hydroxypropylcellulose) (HPC)) 101 % of control; (dose: 45.2 mg/kg/injection, schedule: Q01DX009 (ip), vehicle: Klucel (hydroxypropylcellulose) (HPC)) 100 % of control.
